Reference: patent US20240350643A1, “PROTEIN DEGRADATION AGENT” (SUZHOU KINTOR PHARMACEUTICALS, INC., priority 2021, published 2024)
Where two headings read alike, the source gives them in different places.

How the values were obtained:
[1] = molecular target: T1, c-Myc protein (Homo sapiens, UniProt P01106); experiment: Ability of compounds to degrade c-Myc protein in HL60 cells (ELISA); format: cell-based; conditions: HL-60, 1 μM compound, 24 h, read-out: HL60 cells Protein degradation rate (1 μM)
T1 construct: endogenous in cells; host or cells: HL60 cells
Procedure: I Activity test 1: Ability of compounds to degrade c-Myc protein in HL60 cells:
HL60 cells in the exponential growth phase were centrifuged, diluted with fresh culture mediums to 6×10^4 cells/100 μL and plated into a 96-well plate at 100 μL per well.
Preparation of test compounds: the compounds were weighed and diluted with DMSO to a 10 mM stock solution for later use. According to test requirements, drugs were diluted with cell culture mediums, with ten-fold dilutions starting from 10 μM, to achieve 3 concentration gradients: 10 μM, 1 μM and 100 NM; and finally, 1 μL of the drugs (DMSO content: 0.01%) were added to each well. For the blank control group, DMSO was also diluted with cell culture mediums, and finally, 1 μL of the control reagent (DMSO content: 0.01%) was added to each well.
3. Effect of drugs on c-Myc in cells as determined by ELISA
After 24 h of drug action, the culture mediums were removed, and the cells were washed once with ice-cold 1× PBS. PBS was removed, and 100 μL of ice-cold 1× Cell Lysis Buffer plus 1 mM phenylmethylsulfonyl fluoride (PMSF) was added to each well. The plate was incubated on ice for 20 min and centrifuged at 4000 RPM at 4° C. for 10 min for later use.
4. Reagent and antibody preparation in ELISA kit 1× wash buffer • 1). 16 mL of ELISA wash buffer concentrate (25×) was diluted with 384 mL of deionized water or distilled water, labeled as 1× Wash Buffer. • 2). The concentrate and 1× Wash Buffer were stored in the refrigerator. The diluted buffer was used within 14 days.
The cell extraction buffer contains 10 mM Tris (pH 7.4), 100 mM NaCl, 1 mM EDTA, 1 mM EGTA, 1 mM NaF, 20 mM Na4P2O7 2 mM Na3VO4. 1% Triton™ ×-100, 10% glycerol, 0.1% SDS and 0.5% deoxycholate. Immediately before use, PMSF (0.3 M stock solution in DMSO) was added to the buffer to a final concentration of 1 mM.
Standard curve configuration: The standard liquid was diluted using glass or plastic tubes. • 1). Huc-Myc (total) standard liquid (Invitrogen, KH02041) was reconstituted with a standard dilution to 1000 pg/mL. Refer to the standard vial label for instructions. The contents were gently swirled or mixed and then allowed to stand for 10 minutes to ensure complete reconstitution, labeled as 1,000 pg/mL human c-Myc. The standard liquid was used within 1 hour after reconstitution. • 2). 250 μL of standard dilution buffers were added to 7 test tubes respectively labeled 500, 250, 125, 62.5, 31.25, 15,63 and 0 pg/mL. • 3). 250 μL of the 1000 pg/ml standard stock solution was added to the first EP tube to a concentration of 500 pg/mL, vortexed and mixed evenly. 250 μL of the resulting mixture was further pipetted and added to the second EP tube to a concentration of 250 pg/mL. Serial dilutions were performed until the sixth EP tube with a concentration of 15.63 pg/mL. Dilution was not performed on the last EP tube. • 4). The remaining reconstituted standard liquid should be discarded, or aliquoted and frozen at −80° C. for further use. Standards can be frozen and thawed only once without losing immunoreactivity.
1× anti-rabbit IgG HRP solution: 1× anti-rabbit IgG HRP solution was prepared within 15 minutes of use. The anti-rabbit IgG HRP (100×) contained 50% viscous glycerol. To ensure accurate dilutions, the following operations were carried out: 1 For each 8-well test strip used in the test, 10 μl, of the anti-rabbit IgG -IRP (100×) solution was pipetted, wherein the pipette tip was wiped with clean absorbent paper to remove excess solutions, and then the solution was dispensed into a test tube containing 1 mL of HRP diluent and mixed thoroughly. 2. The unused anti-rabbit IgG HRP (100×) was placed in the refrigerator for storage.
50 μL of the standard liquid was added to the appropriate wells and not added to the blank control well. Except for the blank control well, 50 μL of Hu c-Myc (total) detection antibody solution was added to each well and mixed by tapping the side face of the plate. […]

[2] = tested on: HL60 cells; experiment: Anti-proliferation ability of compounds on HL60 cells (CTG); format: cell-based, human; conditions: 3 days, CellTiter-Glo, read-out: HL60 cells Proliferation inhibitory activity
Procedure: II. Activity test 2: Anti-proliferation ability of compounds on HL60 cells: 1 Cell plating
HL60 cells in the logarithmic growth phase were counted and plated evenly in a 96-well transparent bottom white plate at 20000 cells per well and 100 μL per well.
A certain amount of the compounds was weighed and diluted with DMSO to a 10 mM stock solution. The culture mediums corresponding to the cells were taken, and the drugs were diluted to the concentration required by the test, shaken gently and mixed evenly. 50 μl of the gradient dilution of the diluted compound was added to each well of the plated cells, and 50 μL of 0.1% DMSO was added to the control group. The plate was shaken gently, mixed evenly and incubated in a cell culture incubator for 3 days.
• 3.1 The CellTiter-GLo™ (CTG) reagent was taken in advance from the −20° C. refrigerator and equilibrated to room temperature in the dark (white bottle+brown bottle, 1:1 mixing evenly into the brown bottle, for later use). • 3.2 The 96-well plate was taken out and inspected under a microscope for growth situation. • 3.3 The bottom of the 96-well plate was tagged with white paper, and then the plate was wrapped with tin foil paper, shaken at 37° C. at 300 r for 10 min and mixed evenly. • 3.4 50 ul of CTG detection reagent was added to each well, Luminescence signal was detected using a microplate reader, and the inhibition rate was calculated. IC50 values of the compounds were calculated by XLfit software to evaluate the proliferation inhibitory activity on HL60 cells.

T1 sequence (P01106 whole entry): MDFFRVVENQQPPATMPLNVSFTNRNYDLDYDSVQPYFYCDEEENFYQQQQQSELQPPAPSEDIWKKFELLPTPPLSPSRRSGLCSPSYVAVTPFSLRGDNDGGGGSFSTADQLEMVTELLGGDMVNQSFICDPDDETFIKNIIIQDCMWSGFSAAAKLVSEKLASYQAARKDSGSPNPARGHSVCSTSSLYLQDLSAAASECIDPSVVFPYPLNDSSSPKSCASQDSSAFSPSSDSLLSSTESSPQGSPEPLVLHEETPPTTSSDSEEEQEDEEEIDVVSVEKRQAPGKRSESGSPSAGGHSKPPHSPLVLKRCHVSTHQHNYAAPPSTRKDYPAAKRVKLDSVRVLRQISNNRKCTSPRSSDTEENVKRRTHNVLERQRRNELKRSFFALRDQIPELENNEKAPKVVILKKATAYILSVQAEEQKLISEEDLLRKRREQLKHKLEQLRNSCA

| SMILES | inhibition at 1 µM [1] [%] | IC50 ([2]; Homo sapiens, HL-60, 72 h) [nM] | IC50 [2] [nM] |
| --- | --- | --- | --- |
| CN(CCc1cccc2ccccc12)Cc1ccc(CNC(=O)c2ccc3c(c2)C(=O)N(C2CCC(=O)NC2=O)C3=O)cc1F (stereo not shown) [A109] | 60 to 90 | 5.5 ± 4.2 | – |
| COc1ccccc1CCC(=O)NCc1ccc(CNC(=O)c2ccc3c(c2)C(=O)N(C2CCC(=O)NC2=O)C3=O)cc1 (stereo not shown) [A63] | 60 to 90 | 702 ± 33.8 | – |
| COc1cc(CNC(=O)Cn2c3ccccc3c3cccnc32)ccc1CNC(=O)c1ccc2c(c1)C(=O)N(C1CCC(=O)NC1=O)C2=O (stereo not shown) [A112] | 60 to 90 | 3 ± 0.1 | – |
| N#CCCN(CCn1c2ccccc2c2cccnc21)Cc1ccc(CNC(=O)c2ccc3c(c2)C(=O)N(C2CCC(=O)NC2=O)C3=O)cc1 (stereo not shown) [A93] | 60 to 90 | 171 ± 60.4 | – |
| O=C1CCC(N2C(=O)c3ccc(C(=O)NCCCCCCNC(=O)NC4c5ccccc5-c5ccccc54)cc3C2=O)C(=O)N1 (stereo not shown) [A10] | 10 to 30 | 1213 ± 4 | – |
| O=C1CCC(N2C(=O)c3ccc(C(=O)NCc4ccc(CNCCn5c6ccccc6c6cccnc65)cc4)cc3C2=O)C(=O)N1 (stereo not shown) [A74] | 60 to 90 | 5.5 ± 2.3 | – |
| O=C(Cn1c2ccccc2c2cccnc21)NCc1ccc(C(=O)NCc2ccc3c(c2)C(=O)N(C2CCC(=O)NC2=O)C3=O)cc1 (stereo not shown) [A178] | 60 to 90 | 16.9 | – |
| COc1cc(CNC(=O)Cc2cccc3ccccc23)ccc1CNC(=O)c1ccc2c(c1)C(=O)N(C1CCC(=O)NC1=O)C2=O (stereo not shown) [A111] | 60 to 90 | 57.6 ± 25.9 | – |
| O=C(Cc1cccc2ccccc12)NCc1ccc(CNC(=O)c2ccc3c(c2)C(=O)N(C2CCC(=O)NC2=O)C3=O)cc1F (stereo not shown) [A107] | 60 to 90 | 3.4 | – |
| O=C(Cc1cccc2ccccc12)NCc1ccc(CNCc2ccc3c(c2)CN(C2CCC(=O)NC2=O)C3=O)cc1 (stereo not shown) [A193] | 60 to 90 | 0.6 ± 0.1 | – |
| CN(CCc1cccc2ccccc12)Cc1ccc(CC(=O)Nc2ccc3c(c2)C(=O)N(C2CCC(=O)NC2=O)C3=O)cc1 (stereo not shown) [A167] | 60 to 90 | 2.1 ± 1.1 | – |
| O=C(Cc1cccc2ccccc12)NCc1ccc(CNCc2ccc3c(c2)CN(C2CCC(=O)NC2=O)C3=O)c(F)c1 (stereo not shown) [A196] | 60 to 90 | 0.5 ± 0.1 | – |
| O=C(Cc1cccc2ccccc12)NCCCCCCCCCc1ccc2c(c1)C(=O)N(C1CCC(=O)NC1=O)C2=O (stereo not shown) [A19] | 60 to 90 | 585 ± 79.8 | – |
| CN(CCn1c2ccccc2c2cccnc21)Cc1ccc(CNCc2ccc3c(c2)C(=O)N(C2CCC(=O)NC2=O)C3=O)cc1 (stereo not shown) [A182] | 60 to 90 | 1.1 ± 0.8 | – |
| COc1cc(CN(C)CCc2cccc3ccccc23)ccc1CNC(=O)c1ccc2c(c1)C(=O)N(C1CCC(=O)NC1=O)C2=O (stereo not shown) [A113] | 60 to 90 | 4.4 ± 3.2 | – |
| COc1cc(CN(C)CCn2c3ccccc3c3cccnc32)ccc1CNC(=O)c1ccc2c(c1)C(=O)N(C1CCC(=O)NC1=O)C2=O (stereo not shown) [A114] | 60 to 90 | 6.5 ± 0.3 | – |
| O=C1CCC(N2C(=O)c3ccc(C(=O)NC[C@H]4CC[C@H](CNC(=O)Nc5cccc6cccnc56)CC4)cc3C2=O)C(=O)N1 (stereo partly shown) [A47] | 60 to 90 | 1040 ± 171 | – |
| O=C(Cc1cccc2ccc(F)cc12)NCc1ccc(CNC(=O)c2ccc3c(c2)CN(C2CCC(=O)NC2=O)C3=O)c(C(F)(F)F)c1 (stereo not shown) [A162] | 60 to 90 | 1.9 ± 0.2 | – |

| SMILES | inhibition at 1 µM [1] [%] | IC50 ([2]; Homo sapiens, HL-60, 72 h) [nM] | IC50 [2] [nM] |
| --- | --- | --- | --- |
| O=C(CN1CCCc2ccccc21)NCc1ccc(CNC(=O)c2ccc3c(c2)CN(C2CCC(=O)NC2=O)C3=O)cc1 (stereo not shown) [A200] | 60 to 90 | 2.5 ± 1 | – |
| CN(CCc1ccc(Cl)cc1Cl)Cc1ccc(CC(=O)Nc2ccc3c(c2)CN(C2CCC(=O)NC2=O)C3=O)c(F)c1 (stereo not shown) [A174] | 60 to 90 | < 3 | – |
| CN(CCc1ccc(Cl)c(Cl)c1)Cc1ccc(CNC(=O)c2ccc3c(c2)C(=O)N(C2CCC(=O)NC2=O)C3=O)cc1 (stereo not shown) [A101] | 60 to 90 | 0.4 | – |
| O=C1CCC(N2C(=O)c3ccc(C(=O)NCc4ccc(CNC(=O)Nc5cccc6ccccc56)cc4)cc3C2=O)C(=O)N1 (stereo not shown) [A45] | 60 to 90 | 61.6 ± 21 | – |
| O=C(Cn1c2ccccc2c2cccnc21)NCc1ccc(CNC(=O)c2ccc3c(c2)CN(C2CCC(=O)NC2=O)C3=O)c(C(F)(F)F)c1 (stereo not shown) [A160] | 60 to 90 | – | 0.4 ± 0.3 |
| O=C(Cn1c2ccccc2c2cccnc21)NCc1ccc(CNCc2ccc3c(c2)C(=O)N(C2CCC(=O)NC2=O)C3=O)c(F)c1 (stereo not shown) [A190] | 60 to 90 | 1.7 ± 0.6 | – |
| O=C1CCC(N2C(=O)c3ccc(C(=O)NCCCCCCNC(=O)n4c5ccccc5c5ccccc54)cc3C2=O)C(=O)N1 (stereo not shown) [A12] | 30 to 60 | 1060 ± 62 | – |
| O=C(Cc1ccc2ccccc2c1)NCCCCCCNC(=O)c1ccc2c(c1)C(=O)N(C1CCC(=O)NC1=O)C2=O (stereo not shown) [A9] | 30 to 60 | 570 ± 38 | – |
| CN(CCc1cccc2ccccc12)Cc1ccc(CC(=O)Nc2ccc3c(c2)CN(C2CCC(=O)NC2=O)C3=O)cc1 (stereo not shown) [A205] | 60 to 90 | 0.2 ± 0.1 | – |
| O=C(Cc1cccc2cccnc12)NCc1ccc(CNCc2ccc3c(c2)C(=O)N(C2CCC(=O)NC2=O)C3=O)cc1 (stereo not shown) [A187] | 60 to 90 | 9.2 ± 0.5 | – |
| CN(CCn1c2ccccc2c2cccnc21)Cc1ccc(CNC(=O)c2ccc3c(c2)C(=O)N(C2CCC(=O)NC2=O)C3=O)cn1 (stereo not shown) [A130] | 60 to 90 | 4.7 ± 2.3 | – |
| O=C(Cc1cccc2ccccc12)NCc1ccc(CC(=O)Nc2ccc3c(c2)C(=O)N(C2CCC(=O)NC2=O)C3=O)cc1 (stereo not shown) [A165] | 60 to 90 | 27.9 ± 19.5 | – |
| CN(CCc1ccc(Cl)c(Cl)c1)Cc1ccc(CC(=O)Nc2ccc3c(c2)C(=O)N(C2CCC(=O)NC2=O)C3=O)cc1 (stereo not shown) [A170] | 60 to 90 | 4 ± 1.7 | – |
| CN(CCc1cccc2ccccc12)Cc1ccc(CNC(=O)c2ccc3c(c2)C(=O)N(C2CCC(=O)NC2=O)C3=O)nc1 (stereo not shown) [A126] | 60 to 90 | 8.5 ± 0.4 | – |
| O=C1CCC(N2C(=O)c3ccc(C(=O)NCc4ccc(C5(NC(=O)Cn6c7ccccc7c7cccnc76)CC5)cc4)cc3C2=O)C(=O)N1 (stereo not shown) [A142] | 60 to 90 | 6.1 ± 0.9 | – |
| O=C(Cn1c2ccccc2c2ccccc21)NCCCCCCCCNC(=O)c1ccc2c(c1)C(=O)N(C1CCC(=O)NC1=O)C2=O (stereo not shown) [A14] | 30 to 60 | 226 ± 72 | – |
| CC(C)(C(=O)NCc1ccc(CNC(=O)c2ccc3c(c2)C(=O)N(C2CCC(=O)NC2=O)C3=O)cc1)n1c2ccccc2c2cccnc21 (stereo not shown) [A32] | 60 to 90 | 433 ± 166 | – |
